Source: publication PMC8072975 (Pharmaceutics, 2021)
Like-named read-outs stand apart in the source and are kept apart here.

Assays:
SARS-CoV-2 (COVID-19) = conditions: read-out: Half-maximal inhibitory concentration (IC50) against SARS-CoV-2; in vitro; preventing viruses' entrance into the cytoplasm; cited from earlier work
[1] = mean ± SD, n = 3; for Stability 4℃, 5-D (%): Table S1
Experimental: The HPLC analyses were performed on an Agilent Technology 1260 infinity system (Agilent Technology Inc., Waldbronn, Germany) equipped with an Agilent ChemStation software Rev. B.04.03-SP2 (105), a binary pump, a degasser, an autosampler, a thermostatted sample reservoir, a thermostatted column compartment, and a UV-detector. A Capcell-pak C18 UG120 column (4.6 mm × 250 mm, 5 μm, Osaka Soda Co. Ltd., Osaka, Japan) was used as an analytical column. The mobile phase was composed of 10 mM NaH2PO4 (pH 1.61–1.63) and 100% ACN (78:22, v/v) with isocratic elution at pH of 2.0–2.1 using a flow rate of 1.0 mL/min. The sample reservoir and column oven were maintained at 4 °C and 25 °C, respectively. The analytes were detected using a UV detector with the wavelength set at 220 nm, and the injection volume was 25 μL.
(§1) The aqueous supernatant (approximately 100 μL) was prepared as the final sample extract after rinsing with 600 μL of chloroform.
(§2) The recovery of the sample preparation method was estimated by dividing the peak area for the pre-spiked sample by the peak area for the post-spiked sample, multiplied by 100. […] Short- and long-term stability was evaluated after storage at 4 °C for 36 h and −70 °C for 24 days. Freeze-thaw stability was assessed with three freeze-thaw cycles at −70 °C. The post-preparation stability was also examined at 4 °C for 24 h.

[2] = Post-preparation stability of teicoplanin and IS mixture (processed plasma extract); format: physicochemical, human; conditions: mean ± SD, n = 3
Experimental: as §1, §2

[3] = cited from earlier work

In the case of teicoplanin, the IC50 (SARS-CoV-2 (COVID-19)) is given as 1.66 µM.

With polymyxin B [IS] the “Stability −70 °C, 24-d (%)” value ([1]; long-term, human plasma, IS 100 mg/L, peak area of polymyxin B2, HPLC-UV 220 nm) was 112.2 ± 8.74%, the “Stability 4 °C, 36 h (%)” value ([1]; short-term, human plasma, IS 100 mg/L (polymyxin B mixture), peak area of polymyxin B2, HPLC-UV 220 nm) was 96.19 ± 2.79% and the “Stability Freeze-Thaw (%)” value ([1]; three freeze-thaw cycles at −70 °C, human plasma, IS 100 mg/L, peak area of polymyxin B2, HPLC-UV) was 111.5 ± 7.36%.

With teicoplanin A2-2 the “Stability 4℃, 5-D (%)” value ([1]; H, 500.0 mg/L) was 101.84 ± 1.59%, the “Stability 4℃, 5-D (%)” value ([1]; L, 7.81 mg/L) was 100.96 ± 11.32% and the “Stability Post-preparation, 7-D (%)” value ([2]; Table S1, H, 500.0 mg/L) was 102.58 ± 7.60%. For the same substance, the “Stability Post-preparation, 7-D (%)” value ([2]; Table S1, L, 7.81 mg/L) was 108.56 ± 24.10% and the “Stability Post-preparation, 7-D (%)” value ([2]; Table S1, M, 62.5 mg/L) was 105.94 ± 2.00%.

For vancomycin, the Half-life [3] is given as roughly 10 h.
